From patent US20260285888A1, “HETEROCYCLIC COMPOUND AND USE THEREOF” (OTSUKA PHARMACEUTICAL CO., LTD., priority 2023, published 2026) come the findings set out here.

Like-named read-outs stand apart in the source and are kept apart here.

A short description of one data set: in vitro. The class given is cell-based, human. As to conditions: human, 300 μmol/L, about 24 hours, PMA-differentiated HL-60 cells, LDH, no-treatment 0%, cell lysis buffer 100%, read-out: cytotoxicity (%) Evaluation compound results. The procedure, abridged:
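Cytotoxicity (%) from supernatant LDH activity after ~24 h treatment at 300 μmol/L final, normalised to no-treatment (0%) and lysis buffer (100%). Cells were PMA-differentiated (10 nM, ~72 h) HL-60 in 2% FBS medium; triplicate means.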

The nature of data set [1]: Study for confirmation of conversion to brexpiprazole in a buffer (stability of the evaluation compounds). The format is physicochemical. The note with it: in buffer, average of duplicate; for Concentration of brexpiprazole formed: 60-minute reaction sample; for Concentration of evaluation compound decreased: decrease in 60-minute vs 0-minute reaction sample. The procedure, abridged: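 Compounds (final 1 μmol/L, from 100 μmol/L working solutions) incubated in buffer at 37° C. for 0 or 60 min, in duplicate, after 3 min pre-incubation of the reaction solution. Reactions stopped with acetonitrile/isopropanol (4:1) containing internal standards; compound and formed brexpiprazole quantified against 0.01–1 μmol/L calibration samples.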

Consider `COCCN(CCOC)P(=O)([O-])OC[N+]1(CCCCOc2ccc3ccc(=O)[nH]c3c2)CCN(c2cccc3sccc23)CC1` [EX 153, (4-(benzo[b]thiophen-4-yl)-1-(4-((2-oxo-1.2-dihydroquinolin-7-yl)oxy)butyl)piperazin-1-ium-1-yl)methyl bis(2-methoxyethyl)phosphoramidate], for which the cytotoxicity at 24 h, 300 µM in “in vitro” was -7%. In data set [1], the “Concentration of brexpiprazole formed” value was 0 nM and the “Concentration of evaluation compound decreased” value is -10 nM.
Regarding `CCCCOCCOP(=O)([O-])OC[N+]1(CCCCOc2ccc3ccc(=O)[nH]c3c2)CCN(c2cccc3sccc23)CC1` [EX 96, (4-(benzo[b]thiophen-4-yl)-1-(4-((2-oxo-1,2-dihydroquinolin-7-yl)oxy)butyl)piperazin-1-ium-1-yl)methyl (2-butoxyethyl) phosphate], the cytotoxicity at 24 h, 300 µM in the data set “in vitro” (differentiated hl-60 cells) was found to be 12%. In data set [1], the “Concentration of brexpiprazole formed” value is 0 nM and the “Concentration of evaluation compound decreased” value turned out to be 30 nM.
For `O=c1ccc2ccc(OCCCC[N+]3(COP(=O)([O-])OCCCCCCCCCO)CCN(c4cccc5sccc45)CC3)cc2[nH]1` [EX 46, (4-(benzo[b]thiophen-4-yl)-1-(4-((2-oxo-1,2-dihydroquinolin-7-yl)oxy)butyl)piperazin-1-ium-1-yl)methyl (9-hydroxynonyl) phosphate] the same measures were 14%, 0 nM and 40 nM.
For `CC(C)(C)[Si](C)(C)OCCCCOP(=O)([O-])OC[N+]1(CCCCOc2ccc3ccc(=O)[nH]c3c2)CCN(c2cccc3sccc23)CC1` [EX 60, (4-(benzo[b]thiophen-4-yl)-1-(4-((2-oxo-1,2-dihydroquinolin-7-yl)oxy)butyl)piperazin-1-ium-1-yl)methyl (4-((tert-butyldimethylsilyl)oxy)butyl) phosphate] the same measures were 16%, 0 nM and 90 nM.
For `CCOC(=O)CNP(=O)([O-])OC[N+]1(CCCCOc2ccc3ccc(=O)[nH]c3c2)CCN(c2cccc3sccc23)CC1` [EX 154, (4-(benzo[b]thiophen-4-yl)-1-(4-((2-oxo-1,2-dihydroquinolin-7-yl)oxy)butyl)piperazin-1-ium-1-yl)methyl (2-ethoxy-2-oxoethyl)phosphoramidate] the same measures were 4%, 0 nM and 20 nM.
Regarding `C[C@H](NP(=O)([O-])OC[N+]1(CCCCOc2ccc3ccc(=O)[nH]c3c2)CCN(c2cccc3sccc23)CC1)C(=O)OC(C)(C)C` [EX 157, (4-(benzo[b]thiophen-4-yl)-1-(4-((2-oxo-1,2-dihydroquinolin-7-yl)oxy)butyl)piperazin-1-ium-1-yl)methyl (S)-(1-(tert-butoxy)-1-oxopropan-2-yl)phosphoramidate], the cytotoxicity at 24 h, 300 µM in the data set “in vitro” (differentiated hl-60 cells) was -4%. In data set [1], the “Concentration of brexpiprazole formed” value was 0 nM and the “Concentration of evaluation compound decreased” value was found to be 80 nM.
As to `CCOCCOP(=O)([O-])OC[N+]1(CCCCOc2ccc3ccc(=O)[nH]c3c2)CCN(c2cccc3sccc23)CC1` [EX 94, (4-(benzo[b]thiophen-4-yl)-1-(4-((2-oxo-1,2-dihydroquinolin-7-yl)oxy)butyl)piperazine-1-ium-1-yl)methyl (2-ethoxyethyl) phosphate], in the data set “in vitro” (differentiated hl-60 cells), the cytotoxicity at 24 h, 300 µM is -8%. Further, in data set [1], the “Concentration of brexpiprazole formed” value stood at 0 nM and the “Concentration of evaluation compound decreased” value was -70 nM.
In the case of `CCCCOCCOCCOC(=O)OCOP(=O)([O-])OC[N+]1(CCCCOc2ccc3ccc(=O)[nH]c3c2)CCN(c2cccc3sccc23)CC1` [EX 135, (4-(benzo[b]thiophen-4-yl)-1-(4-((2-oxo-1.2-dihydroquinolin-7-yl)oxy)butyl)piperazin-1-ium-1-yl)methyl (3-oxo-2,4,7,10-tetraoxatetradecyl) phosphate], in “in vitro” (differentiated hl-60 cells), the cytotoxicity at 24 h, 300 µM was -4%. Also, in data set [1], the “Concentration of brexpiprazole formed” value amounted to 0 nM and the “Concentration of evaluation compound decreased” value stood at 70 nM.
